The test system of series [1] is Plasma. In words: Dose normalized AUC in C57BL/6JO1aHsd mouse plasma at 10 mg/kg, po. The series is classed as ADME, organism-based. Also noted: dose 10 mg/kg, route oral. The following applies: in vivo.
A short description of series [2]: Volume of distribution at steady state in C57BL/6JO1aHsd mouse at 5 mg/kg, iv. The following applies: in vivo, read-out: Vdss. Also on record: dose 5 mg/kg, route intravenous. The series is classed as ADME, organism-based.
Series [3] is described as follows: Oral bioavailability in C57BL/6JO1aHsd mouse at 10 mg/kg. The series is classed as ADME, organism-based. The following applies: in vivo.
Series [4] is described as follows: Tmax in C57BL/6JO1aHsd mouse muscle at 10 mg/kg, po. Also on record: dose 10 mg/kg, route oral. The series is classed as ADME, organism-based, Muscle tissue.
Series [5] deals with Muscle tissue. In words: Dose normalized AUC in C57BL/6JO1aHsd mouse muscle at 10 mg/kg, po. The format is ADME, organism-based. Also on record: dose 10 mg/kg, route oral. The following applies: in vivo.
The test system of series [6] is Muscle tissue. In words: Cmax in C57BL/6JO1aHsd mouse muscle at 10 mg/kg, po. The following applies: in vivo. Also on record: dose 10 mg/kg, route oral. The series is classed as ADME, organism-based.
Series [7] relates to Plasma. The experiment in a line: Cmax in C57BL/6JO1aHsd mouse plasma at 10 mg/kg, po. The following applies: in vivo. Also noted: dose 10 mg/kg, route oral. The format is ADME, organism-based.
Series [8] deals with Brain. In words: Cmax in C57BL/6JO1aHsd mouse brain at 10 mg/kg, po. The following applies: in vivo. Also on record: dose 10 mg/kg, route oral. The format is ADME, organism-based.
In series [9] the test system is Brain. The experiment in a line: Dose normalized AUC in C57BL/6JO1aHsd mouse brain at 10 mg/kg, po. The following applies: in vivo. Also noted: dose 10 mg/kg, route oral. The series is classed as ADME, organism-based.
Series [10] in a line: Tmax in C57BL/6JO1aHsd mouse plasma at 10 mg/kg, po. The format is ADME, organism-based. Also on record: dose 10 mg/kg, route oral.
The nature of series [11]: Tmax in C57BL/6JO1aHsd mouse brain at 10 mg/kg, po. The format is ADME, organism-based. Also on record: dose 10 mg/kg, route oral.
Series [12] is described as follows: Ratio of drug uptake from brain to plasma in C57BL/6JO1aHsd mouse at 10 mg/kg, po. The following applies: read-out: BPR. Also noted: dose 10 mg/kg, route oral. The format is ADME, organism-based.
Series [13] is described as follows: Ratio of drug uptake from muscle to plasma in C57BL/6JO1aHsd mouse at 10 mg/kg, po. Also on record: dose 10 mg/kg, route oral. The series is classed as ADME, organism-based.

In general, bioavailability refers to the share of a dose that reaches the circulation, judged against a reference dose that is usually intravenous. A higher bioavailability goes with good availability. In general, Tmax refers to the time at which the peak concentration occurs. As to `O=C(NO)[C@@H]1[C@H](c2ccccc2)[C@H]1c1ccc2c(c1)CN(CC(F)(F)F)C2=O`, the AUC/dose with Plasma [1] was 1100 nM·kg·h/mg; with Muscle tissue [5], 1000 nM·kg·h/mg; with Brain [9] it was 17 nM·kg·h/mg. The Vd in [2] came out at 4.6 L/kg. The compound also returned a bioavailability in [3] of 62%. Besides, the time to peak (Tmax) was found to be 60 min in series [4], 30 min in [10] and 30 min in [11]. Moreover, the Cmax normalised in the series with Muscle tissue [6] is 160 nM·kg/mg; in the series with Plasma [7], 280 nM·kg/mg; in the series with Brain [8] it was 5.7 nM·kg/mg.

Turning to `O=C(NO)[C@@H]1[C@H](c2ccccc2)[C@H]1c1ccc(-c2cnc(C3CC3)o2)cc1`, the AUC/dose with Plasma [1] was 1500 nM·kg·h/mg; in the series with Muscle tissue [5] it was 1000 nM·kg·h/mg; in the series on Brain [9], 390 nM·kg·h/mg. Also, in [2], the Vd stood at 1.6 L/kg. Further, in series [3], the bioavailability turned out to be 73%. Besides, the Kp in series [12] is 0.3; in [13] it was 0.4. Also, the Tmax came out at 60 min in series [4], 30 min in series [10] and 60 min in series [11]. Further, the Cmax normalised came out at 420 nM·kg/mg with Muscle tissue [6], 810 nM·kg/mg with Plasma [7] and 200 nM·kg/mg in the series with Brain [8].

Regarding `O=C(NO)[C@@H]1[C@H](c2ccccc2)[C@H]1c1ccc(-c2cnco2)cc1`, the results for the AUC/dose with Plasma [1], with Muscle tissue [5] and in the series on Brain [9] were 1300 nM·kg·h/mg, 810 nM·kg·h/mg and 700 nM·kg·h/mg, respectively. Moreover, the Vd in [2] amounted to 0.74 L/kg. In [3], this compound yielded a bioavailability of 84%. Besides, the Tmax in [4], in series [10] and in series [11] was 30 min throughout. The figures for the Cmax normalised in the series on Muscle tissue [6], with Plasma [7] and in the series on Brain [8] were 730 nM·kg/mg, 1200 nM·kg/mg and 670 nM·kg/mg, respectively.

These data come from ChEMBL document CHEMBL3108758, “Design, synthesis, and biological evaluation of potent and selective class IIa histone deacetylase (HDAC) inhibitors as a potential therapy for Huntington's disease” (J Med Chem, 2013).
